Reference: patent US10183014B2, “Ocular formulations for drug-delivery and protection of the anterior segment of the eye” (PanOptica, Inc., priority 2014, dated 2019)
Where “and” joins values, the source holds several entries; their conditions need not be identical. Identical values can stand only once. Like-named read-outs stand apart in the source and are kept apart here.

Key:
[1] = target: T1, EGFR (Homo sapiens, UniProt P00533); experiment: EGFR tyrosine phosphorylation assay in hTCEpi cells with a second active agent; assay type: cell-based; conditions: vitamin K 50 μM, nicotinic acid 10 μM or nicotinamide 10 μM, 4 hours pre-treatment; EGF 50 ng/ml
T1 construct: endogenous in cells; host or cells: hTCEpi (immortalized corneal epithelial cells)
T1 sequence (P00533 25-1210): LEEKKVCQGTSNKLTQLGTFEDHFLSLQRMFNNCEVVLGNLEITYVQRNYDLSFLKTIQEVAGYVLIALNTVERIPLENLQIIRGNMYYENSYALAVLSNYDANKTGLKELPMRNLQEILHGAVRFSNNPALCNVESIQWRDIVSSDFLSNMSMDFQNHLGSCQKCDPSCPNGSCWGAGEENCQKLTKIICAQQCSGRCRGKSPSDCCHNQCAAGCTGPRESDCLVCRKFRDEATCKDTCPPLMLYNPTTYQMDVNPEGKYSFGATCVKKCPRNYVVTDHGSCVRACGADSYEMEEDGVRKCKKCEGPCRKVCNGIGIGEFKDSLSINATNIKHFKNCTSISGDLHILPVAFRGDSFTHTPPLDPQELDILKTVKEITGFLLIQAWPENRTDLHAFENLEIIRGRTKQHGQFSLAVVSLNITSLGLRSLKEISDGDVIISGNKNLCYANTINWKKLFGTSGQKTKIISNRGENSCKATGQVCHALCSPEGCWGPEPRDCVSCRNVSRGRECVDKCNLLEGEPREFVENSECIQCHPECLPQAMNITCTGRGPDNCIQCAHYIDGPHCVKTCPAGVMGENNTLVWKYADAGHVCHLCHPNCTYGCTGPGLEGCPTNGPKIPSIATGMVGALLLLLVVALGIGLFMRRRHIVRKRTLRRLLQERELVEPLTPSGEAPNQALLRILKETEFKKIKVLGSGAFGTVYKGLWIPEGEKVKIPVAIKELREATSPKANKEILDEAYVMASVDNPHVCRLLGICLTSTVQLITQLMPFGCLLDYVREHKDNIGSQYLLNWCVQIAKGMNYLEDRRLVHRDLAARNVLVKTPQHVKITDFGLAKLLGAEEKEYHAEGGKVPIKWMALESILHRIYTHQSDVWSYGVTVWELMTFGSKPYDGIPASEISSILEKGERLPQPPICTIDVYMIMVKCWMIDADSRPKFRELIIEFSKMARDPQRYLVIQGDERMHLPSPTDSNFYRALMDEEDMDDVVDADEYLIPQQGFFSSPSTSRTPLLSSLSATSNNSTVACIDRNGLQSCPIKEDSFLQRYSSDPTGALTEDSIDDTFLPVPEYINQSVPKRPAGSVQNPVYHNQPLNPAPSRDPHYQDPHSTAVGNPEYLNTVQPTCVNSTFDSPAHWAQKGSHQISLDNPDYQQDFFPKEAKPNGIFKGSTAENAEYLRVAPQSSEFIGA
Protocol: An EGFR tyrosine assay in corneal epithelial cells is run to determine if Vitamin K or nicotinic acid/nicotinamide can overcome inhibition of EGFR and if there is an increase in EGFR activity. […] Cells are harvested cells and immunoblotted for determination of phosphorylated EGFR (tyrosine 1068 and tyrosine 1045) and total EGFR concentration which was used to determine receptor activity (IC50).
The cells were then incubated with EGF (50 ng/ml) for 15 minutes. Cells were harvested and cell lysates were immunoblotted for determination of phosphorylated EGFR (tyrosine 1068 and tyrosine 1045) and total EGFR concentration.

[2] = Ocular pharmacokinetics of formulations, Example 20-4; assay type: in vivo, Dutch Belted rabbits; conditions: Dutch Belted, rabbit, topical, PSD 30 μm/XL, HPMC 0.08%, glycerol 2.5%, HEC 0.2%, VitK3 1 μM, pH ≈7.5, QD, Day 5, 1 hr post dose
Protocol: The study design (Table 18-1) consisted of forty-nine (49) Dutch Belted rabbits, each receiving a 30 μL bilateral topical ocular dose.
Ocular sampling occurred one hour following the first daily dose on Day 5 for all groups. Whole blood samples using K2EDTA as an anticoagulant were collected from all animals on Day 5, 1 hour post dose. The whole blood was placed on ice until samples were spun in a centrifuge to separate the plasma. Aqueous humor, conjunctiva, cornea, central retina, peripheral retina, central choroid, and peripheral choroid samples were collected following necropsy. Samples were then frozen at −70° C. or lower. For all Groups 1-16, plasma, central retina, central choroid, and cornea samples were assayed for PAN-90806.

[3] = Particle size distribution by laser diffraction light scattering; assay type: physicochemical; conditions: API form Freebase
Protocol: Particle size distribution can be analyzed using laser diffraction light scattering, e.g., with a Horiba LA-950 V2. Generic assumptions are made in setting conditions and the refractive index value. The distributions are volume based. Sample density is adjusted to a generic range of percent transmission on the blue LED light source. A small sample cell (filled with water) can be used rather than the flow through cell, to minimize sample quantity.
Particle size distribution was analyzed using laser diffraction light scattering with a Horiba LA-950 V2. Generic assumptions were made in setting conditions and the refractive index value. The distributions were volume based. Sample density was adjusted to a generic range of percent transmission on the blue LED light source. A small sample cell (filled with water) was used rather than the flow through cell, to minimize sample quantity.

[4] = excipient PVP K-29/32, roller speed high, media size 0.8 mm, particles under storage 1 day, RT
[5] = excipient PVP K-29/32, roller speed high, media size 0.8 mm, particles under storage 15 days, RT
[6] = excipient Pluronic F-127, milling not given, particles under storage 6 days, 40° C.
[7] = excipient Pluronic F-127, roller speed high, media size 0.8 mm, particles under storage 3 days, RT
[8] = excipient Pluronic F-127, roller speed low, media size 3 mm
[9] = excipient Tween 80, milling not given
[10] = excipient Tween 80, roller speed high, media size 0.8 mm, particles under storage 28 days, RT

NC(=O)c1cccnc1 [nicotinamide]
Effect on Formula I or II compound-mediated EGFR inhibition [1]: overcome

NC(=O)c1c(OCc2c(F)cc(Br)cc2F)nsc1NC(=O)NCCCCN1CCCC1 [Formula II]
concentration at 1 h ([2]; central choroid, 4 mg/mL (30 μL per eye, bilateral), Group 4: 4 mg/mL FB suspension, read-out: Central Choroid concentration): 203 nM
concentration at 1 h ([2]; central choroid, Group 5: 6 mg/mL FB suspension, read-out: Central Choroid concentration): 203 nM
concentration at 1 h ([2]; central retina, 4 mg/mL (30 μL per eye, bilateral), Group 4: 4 mg/mL FB suspension, read-out: Central Retina concentration): 38.4 nM
concentration at 1 h ([2]; central retina, Group 5: 6 mg/mL FB suspension, read-out: Central Retina concentration): 47.9 nM
concentration at 1 h ([2]; cornea, 4 mg/mL (30 μL per eye, bilateral), Group 4: 4 mg/mL FB suspension, read-out: Cornea concentration): 21300 nM
concentration at 1 h ([2]; cornea, Group 5: 6 mg/mL FB suspension, read-out: Cornea concentration): 23800 nM
concentration at 1 h ([2]; plasma, 4 mg/mL (30 μL per eye, bilateral), Group 4: 4 mg/mL FB suspension, read-out: Plasma concentration): 3.27 nM
concentration at 1 h ([2]; plasma, Group 5: 6 mg/mL FB suspension, read-out: Plasma concentration): 3.91 nM
PSD (Particle Size Distribution) Mean [3, 4]: ~210 nm
PSD (Particle Size Distribution) Median [3, 4]: ~150 nm
PSD (Particle Size Distribution) Mean [3, 5]: ~170 nm
PSD (Particle Size Distribution) Median [3, 5]: ~130 nm
PSD (Particle Size Distribution) Mean [3, 6]: ~3100 nm
PSD (Particle Size Distribution) Median [3, 6]: ~2500 nm
PSD (Particle Size Distribution) Mean [3, 7]: ~130 nm
PSD (Particle Size Distribution) Median [3, 7]: ~120 nm
PSD (Particle Size Distribution) Mean [3, 8]: ~8100 nm and ~4700 nm
PSD (Particle Size Distribution) Median [3, 8]: ~6200 nm and ~4400 nm
PSD (Particle Size Distribution) Mean [3, 9]: ~2000 nm
PSD (Particle Size Distribution) Median [3, 9]: ~300 nm
PSD (Particle Size Distribution) Mean [3, 10]: ~370 nm
PSD (Particle Size Distribution) Median [3, 10]: ~160 nm
PSD (Particle Size Distribution) Median ([3]; excipient Tween 80, roller speed low, media size 3 mm): ~5500 nm and ~3900 nm and ~3700 nm and ~3500 nm

O=C(O)c1cccnc1 [nicotinic acid]
Effect on Formula I or II compound-mediated EGFR inhibition [1]: overcome
